US10844077B2, “Thiazolyl-containing compounds for treating proliferative diseases” (Dana-Farber Cancer Institute, Inc., priority 2014, dated 2020)
Several values for one entry are separate records, joined by “and”; a condition that tells them apart may be missing. Identical values can stand only once. Like-named read-outs stand apart in the source and are kept apart here.

Legend:
Experiment in all cases: KINATIV assay
Format in all cases: cell-based
[1] = target: MLK3 (Homo sapiens (Human), UniProt Q16584); settings: 1 μM, 90 minutes, BCWM.1 cells
Method: (§1) The cells were harvested and lysed. The lysates were directly labeled with an ATP-biotin probe. Bound kinases were identified and quantitated by ACTIVX as described in Patricelli et al., Biochemistry, 2007, 46(2): 350-358. The compounds were tested in duplicates against duplicate or quadruplicate control samples.

[2] = target: MARK3 (Homo sapiens (Human), UniProt P27448); settings: 1 μM, 90 minutes, BCWM.1 cells
Method: as §1

[3] = target: FGR (Homo sapiens (Human), UniProt P09769); settings: 1 μM, 90 minutes, BCWM.1 cells
Method: as §1

[4] = target: PIK3CD (Homo sapiens (Human), UniProt O00329); settings: 1 μM, 90 minutes, BCWM.1 cells
Method: as §1

[5] = target: CaMK2d (Homo sapiens (Human), UniProt Q13557); settings: 1 μM, 90 minutes, BCWM.1 cells
Method: as §1

[6] = target: NEK2 (Homo sapiens (Human), UniProt P51955); settings: 1 μM, 90 minutes, BCWM.1 cells
Method: as §1

[7] = target: RSK3 domain1 (Homo sapiens (Human), UniProt Q15349); settings: 1 μM, 90 minutes, BCWM.1 cells
Chain of RSK3 domain1 (Q15349 whole entry, the tested form may be a part): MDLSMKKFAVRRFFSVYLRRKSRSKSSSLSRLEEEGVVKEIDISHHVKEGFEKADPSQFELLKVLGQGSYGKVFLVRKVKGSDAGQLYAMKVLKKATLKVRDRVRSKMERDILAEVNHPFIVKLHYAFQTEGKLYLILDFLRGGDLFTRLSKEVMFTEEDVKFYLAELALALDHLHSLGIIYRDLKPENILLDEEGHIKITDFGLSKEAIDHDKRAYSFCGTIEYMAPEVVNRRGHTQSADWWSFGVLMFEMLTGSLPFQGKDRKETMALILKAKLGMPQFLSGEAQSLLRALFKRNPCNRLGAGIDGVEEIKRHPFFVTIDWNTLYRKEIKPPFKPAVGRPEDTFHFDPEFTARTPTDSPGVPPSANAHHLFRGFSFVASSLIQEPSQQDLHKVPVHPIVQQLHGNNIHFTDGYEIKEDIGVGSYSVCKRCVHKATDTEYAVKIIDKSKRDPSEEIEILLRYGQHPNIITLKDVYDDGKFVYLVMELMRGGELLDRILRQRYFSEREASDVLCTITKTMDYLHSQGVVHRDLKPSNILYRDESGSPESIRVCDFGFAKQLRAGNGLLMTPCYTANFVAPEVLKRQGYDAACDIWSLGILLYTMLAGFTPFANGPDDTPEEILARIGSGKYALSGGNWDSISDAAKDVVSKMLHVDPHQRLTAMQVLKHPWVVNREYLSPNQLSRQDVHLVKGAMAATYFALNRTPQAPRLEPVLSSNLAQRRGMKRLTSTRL
Method: as §1

[8] = system: RSK1, RSK2, RSK3 domain1; settings: 1 μM, 90 minutes, BCWM.1 cells
Method: as §1

[9] = target: CaMK1d (Homo sapiens (Human), UniProt Q8IU85); settings: 1 μM, 90 minutes, BCWM.1 cells
Chain of CaMK1d (Q8IU85 whole entry): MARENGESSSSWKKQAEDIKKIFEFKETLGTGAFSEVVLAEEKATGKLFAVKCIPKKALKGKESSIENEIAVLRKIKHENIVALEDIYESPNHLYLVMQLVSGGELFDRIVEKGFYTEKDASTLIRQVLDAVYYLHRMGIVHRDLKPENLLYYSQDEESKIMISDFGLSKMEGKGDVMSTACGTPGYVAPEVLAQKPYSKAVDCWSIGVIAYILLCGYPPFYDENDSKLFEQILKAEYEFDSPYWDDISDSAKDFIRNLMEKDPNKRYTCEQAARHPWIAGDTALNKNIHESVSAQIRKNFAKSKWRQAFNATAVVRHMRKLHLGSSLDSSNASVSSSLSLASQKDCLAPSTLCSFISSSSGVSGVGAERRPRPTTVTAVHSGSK
Method: as §1

[10] = target: RSK1 domain2 (Homo sapiens (Human), UniProt Q15418); settings: 1 μM, 90 minutes, BCWM.1 cells
Method: as §1

[11] = target: PIP4K2C (Homo sapiens (Human), UniProt Q8TBX8); settings: 1 μM, 90 minutes, BCWM.1 cells
Method: as §1

[12] = target: MST4 (Homo sapiens (Human), UniProt Q9P289); settings: 1 μM, 90 minutes, BCWM.1 cells
Method: as §1

[13] = system: Wnk1, Wnk2, Wnk4; settings: 1 μM, 90 minutes, BCWM.1 cells
Method: as §1

[14] = target: CK2a2 (Homo sapiens (Human), UniProt P19784); settings: 1 μM, 90 minutes, BCWM.1 cells
Method: as §1

[15] = system: MST4, YSK1; settings: 1 μM, 90 minutes, BCWM.1 cells
Method: as §1

[16] = target: VRK2 (Homo sapiens (Human), UniProt Q86Y07); settings: 1 μM, 90 minutes, BCWM.1 cells
Method: as §1

[17] = target: GSK3B (Homo sapiens (Human), UniProt P49841)
Method: as §1

[18] = system: AMPKa1, AMPKa2; settings: 1 μM, 90 minutes, BCWM.1 cells
Method: as §1

[19] = target: MLKL (Homo sapiens (Human), UniProt Q8NB16); settings: 1 μM, 90 minutes, BCWM.1 cells
Method: as §1

[20] = target: RSK2 domain2 (Homo sapiens (Human), UniProt P51812); settings: 1 μM, 90 minutes, BCWM.1 cells
Method: as §1

[21] = target: MAST3 (Homo sapiens (Human), UniProt O60307); settings: 1 μM, 90 minutes, BCWM.1 cells
Method: as §1

[22] = target: IKKe (Homo sapiens (Human), UniProt Q14164); settings: 1 μM, 90 minutes, BCWM.1 cells
Method: as §1

[23] = target: PIK3CG (Homo sapiens (Human), UniProt P48736); settings: 1 μM, 90 minutes, BCWM.1 cells
Chain of PIK3CG (P48736 whole entry): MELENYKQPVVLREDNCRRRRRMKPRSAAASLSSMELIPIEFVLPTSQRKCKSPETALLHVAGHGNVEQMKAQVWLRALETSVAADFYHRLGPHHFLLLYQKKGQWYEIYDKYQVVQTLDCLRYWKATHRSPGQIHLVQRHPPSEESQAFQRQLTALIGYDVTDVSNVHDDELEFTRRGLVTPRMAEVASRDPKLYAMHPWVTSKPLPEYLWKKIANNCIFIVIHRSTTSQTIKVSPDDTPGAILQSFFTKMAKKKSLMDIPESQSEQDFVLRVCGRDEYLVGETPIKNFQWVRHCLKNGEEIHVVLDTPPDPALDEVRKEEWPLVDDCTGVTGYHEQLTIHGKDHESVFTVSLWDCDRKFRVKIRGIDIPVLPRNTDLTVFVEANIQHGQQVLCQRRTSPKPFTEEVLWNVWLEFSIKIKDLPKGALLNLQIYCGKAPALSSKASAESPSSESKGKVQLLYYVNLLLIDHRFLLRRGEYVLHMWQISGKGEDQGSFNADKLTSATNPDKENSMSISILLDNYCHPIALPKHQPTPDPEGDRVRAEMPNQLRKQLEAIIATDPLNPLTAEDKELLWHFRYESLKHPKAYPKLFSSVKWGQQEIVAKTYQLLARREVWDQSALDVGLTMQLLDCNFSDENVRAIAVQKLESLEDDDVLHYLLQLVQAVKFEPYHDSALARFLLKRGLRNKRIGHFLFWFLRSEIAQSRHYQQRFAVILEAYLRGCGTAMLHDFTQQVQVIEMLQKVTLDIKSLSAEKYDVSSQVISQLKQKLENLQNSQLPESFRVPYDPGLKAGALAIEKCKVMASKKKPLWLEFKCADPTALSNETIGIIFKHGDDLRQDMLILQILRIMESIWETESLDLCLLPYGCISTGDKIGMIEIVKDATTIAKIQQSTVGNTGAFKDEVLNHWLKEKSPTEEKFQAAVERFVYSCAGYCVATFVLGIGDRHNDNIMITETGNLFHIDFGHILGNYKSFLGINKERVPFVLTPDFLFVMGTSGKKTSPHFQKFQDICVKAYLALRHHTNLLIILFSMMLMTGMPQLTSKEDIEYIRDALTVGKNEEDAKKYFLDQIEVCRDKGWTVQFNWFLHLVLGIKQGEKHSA
Method: as §1

[24] = target: CSK (Homo sapiens (Human), UniProt P41240); settings: 1 μM, 90 minutes, BCWM.1 cells
Method: as §1

[25] = target: Erk1 (Homo sapiens (Human), UniProt P27361); settings: 1 μM, 90 minutes, BCWM.1 cells
Method: as §1

[26] = target: ROCK1 (Homo sapiens (Human), UniProt Q13464); settings: 1 μM, 90 minutes, BCWM.1 cells
Method: as §1

[27] = target: NEK8 (Homo sapiens (Human), UniProt Q86SG6); settings: 1 μM, 90 minutes, BCWM.1 cells
Method: as §1

[28] = target: ULK1 (Homo sapiens (Human), UniProt O75385); settings: 1 μM, 90 minutes, BCWM.1 cells
Method: as §1

[29] = target: MAP3K1 (Homo sapiens (Human), UniProt Q13233); settings: 1 μM, 90 minutes, BCWM.1 cells
Method: as §1

[30] = target: PKD2 (Homo sapiens (Human), UniProt Q9BZL6); settings: 1 μM, 90 minutes, BCWM.1 cells
Method: as §1

[31] = target: LCK (Homo sapiens (Human), UniProt P06239); settings: 1 μM, 90 minutes, BCWM.1 cells
Chain of LCK (P06239 whole entry): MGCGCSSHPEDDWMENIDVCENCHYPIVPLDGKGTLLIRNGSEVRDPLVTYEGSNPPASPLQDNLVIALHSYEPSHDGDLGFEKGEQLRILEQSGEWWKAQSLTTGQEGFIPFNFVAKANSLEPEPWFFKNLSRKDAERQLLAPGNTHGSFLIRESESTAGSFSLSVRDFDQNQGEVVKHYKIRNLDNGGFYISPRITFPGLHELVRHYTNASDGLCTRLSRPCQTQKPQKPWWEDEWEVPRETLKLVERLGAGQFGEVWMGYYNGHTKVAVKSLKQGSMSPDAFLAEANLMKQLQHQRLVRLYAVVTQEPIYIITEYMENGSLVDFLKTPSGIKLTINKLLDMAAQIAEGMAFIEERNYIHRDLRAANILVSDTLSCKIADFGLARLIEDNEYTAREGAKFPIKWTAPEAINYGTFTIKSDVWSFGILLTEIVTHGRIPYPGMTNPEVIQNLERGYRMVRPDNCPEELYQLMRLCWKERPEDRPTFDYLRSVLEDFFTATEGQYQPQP
Method: as §1

[32] = target: ATR (Homo sapiens (Human), UniProt Q13535); settings: 1 μM, 90 minutes, BCWM.1 cells
Method: as §1

[33] = target: BARK1 (Homo sapiens (Human), UniProt P25098); settings: 1 μM, 90 minutes, BCWM.1 cells
Method: as §1

[34] = target: GCN2 (Homo sapiens (Human), UniProt Q9P2K8); settings: 1 μM, 90 minutes, BCWM.1 cells
Method: as §1

[35] = system: IKKe, TBK1; settings: 1 μM, 90 minutes, BCWM.1 cells
Method: as §1

[36] = target: FES (Homo sapiens (Human), UniProt P07332); settings: 1 μM, 90 minutes, BCWM.1 cells
Method: as §1

[37] = target: PIP5K3 (Homo sapiens (Human), UniProt Q9Y2I7); settings: 1 μM, 90 minutes, BCWM.1 cells
Chain of PIP5K3 (Q9Y2I7 whole entry): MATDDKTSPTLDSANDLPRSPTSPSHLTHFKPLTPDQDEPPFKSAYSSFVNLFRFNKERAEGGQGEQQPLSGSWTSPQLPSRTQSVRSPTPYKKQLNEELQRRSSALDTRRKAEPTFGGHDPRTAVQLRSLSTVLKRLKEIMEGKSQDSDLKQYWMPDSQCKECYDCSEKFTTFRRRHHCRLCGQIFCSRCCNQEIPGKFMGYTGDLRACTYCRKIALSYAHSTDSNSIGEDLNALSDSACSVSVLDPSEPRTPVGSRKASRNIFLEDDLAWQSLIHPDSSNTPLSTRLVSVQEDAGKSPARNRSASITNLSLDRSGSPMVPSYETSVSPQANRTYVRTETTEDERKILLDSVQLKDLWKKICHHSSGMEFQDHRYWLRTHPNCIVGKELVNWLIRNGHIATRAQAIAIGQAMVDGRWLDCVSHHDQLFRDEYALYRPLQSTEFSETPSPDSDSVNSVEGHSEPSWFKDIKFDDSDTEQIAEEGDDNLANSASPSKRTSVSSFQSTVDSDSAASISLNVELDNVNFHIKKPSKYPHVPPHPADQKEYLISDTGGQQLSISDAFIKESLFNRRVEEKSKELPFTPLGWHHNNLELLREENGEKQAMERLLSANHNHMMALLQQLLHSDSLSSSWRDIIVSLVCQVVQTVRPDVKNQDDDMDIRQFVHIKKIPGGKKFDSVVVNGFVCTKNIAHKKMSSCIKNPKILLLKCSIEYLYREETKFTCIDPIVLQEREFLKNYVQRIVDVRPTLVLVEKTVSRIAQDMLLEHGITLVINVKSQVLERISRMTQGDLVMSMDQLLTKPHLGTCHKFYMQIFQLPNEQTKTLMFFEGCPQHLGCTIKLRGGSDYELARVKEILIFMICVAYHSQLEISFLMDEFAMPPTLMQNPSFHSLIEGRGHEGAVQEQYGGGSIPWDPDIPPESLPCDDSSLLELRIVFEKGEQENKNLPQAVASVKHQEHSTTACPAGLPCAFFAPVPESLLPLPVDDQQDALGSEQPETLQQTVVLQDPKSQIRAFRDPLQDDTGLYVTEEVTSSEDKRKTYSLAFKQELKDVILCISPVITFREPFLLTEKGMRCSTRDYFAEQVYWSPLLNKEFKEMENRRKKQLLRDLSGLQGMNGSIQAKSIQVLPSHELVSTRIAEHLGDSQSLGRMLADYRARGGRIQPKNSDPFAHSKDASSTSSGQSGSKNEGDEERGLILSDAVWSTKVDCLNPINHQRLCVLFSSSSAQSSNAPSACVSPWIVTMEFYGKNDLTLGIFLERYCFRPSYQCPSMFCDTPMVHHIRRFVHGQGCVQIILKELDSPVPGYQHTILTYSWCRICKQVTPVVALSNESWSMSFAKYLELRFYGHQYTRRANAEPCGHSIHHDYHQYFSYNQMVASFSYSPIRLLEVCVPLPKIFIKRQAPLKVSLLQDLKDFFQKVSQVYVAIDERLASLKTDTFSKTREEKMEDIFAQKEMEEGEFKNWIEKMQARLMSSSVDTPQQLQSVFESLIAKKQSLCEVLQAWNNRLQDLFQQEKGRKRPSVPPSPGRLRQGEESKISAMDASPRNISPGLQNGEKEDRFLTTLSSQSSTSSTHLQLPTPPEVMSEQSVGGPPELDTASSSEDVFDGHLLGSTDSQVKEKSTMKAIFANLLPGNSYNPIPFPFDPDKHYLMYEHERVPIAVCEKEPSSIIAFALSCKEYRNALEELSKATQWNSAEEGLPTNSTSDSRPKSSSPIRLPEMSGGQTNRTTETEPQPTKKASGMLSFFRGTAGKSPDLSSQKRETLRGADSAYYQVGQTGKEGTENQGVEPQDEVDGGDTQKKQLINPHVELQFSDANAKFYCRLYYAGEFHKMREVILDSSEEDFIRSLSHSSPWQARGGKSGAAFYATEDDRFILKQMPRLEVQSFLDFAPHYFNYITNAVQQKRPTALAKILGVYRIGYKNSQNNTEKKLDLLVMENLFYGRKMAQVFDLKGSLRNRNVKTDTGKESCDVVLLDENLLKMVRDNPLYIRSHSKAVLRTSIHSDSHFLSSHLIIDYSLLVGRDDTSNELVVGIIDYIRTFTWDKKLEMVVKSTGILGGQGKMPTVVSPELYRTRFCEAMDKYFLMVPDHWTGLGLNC
Method: as §1

[38] = target: Erk2 (Homo sapiens (Human), UniProt P28482); settings: 1 μM, 90 minutes, BCWM.1 cells
Method: as §1

[39] = system: AurA, AurB, AurC; settings: 1 μM, 90 minutes, BCWM.1 cells
Method: as §1

[40] = target: STLK5 (Homo sapiens (Human), UniProt Q7RTN6); settings: 1 μM, 90 minutes, BCWM.1 cells
Method: as §1

[41] = GSK3B, 1 μM, 90 minutes, BCWM.1 cells

Compound	% change of MS signal compared to control sample [1]	% change of MS signal compared to control sample [2]	% change of MS signal compared to control sample [3]	% change of MS signal compared to control sample [4]	% change of MS signal compared to control sample [5]	% change of MS signal compared to control sample [6]	% change of MS signal compared to control sample [7]	% change of MS signal compared to control sample [8]	% change of MS signal compared to control sample [9]	% change of MS signal compared to control sample [10]	% change of MS signal compared to control sample [12]	% change of MS signal compared to control sample [13]	% change of MS signal compared to control sample [14]	% change of MS signal compared to control sample [15]	% change of MS signal compared to control sample [16]	% change of MS signal compared to control sample [19]	% change of MS signal compared to control sample [20]	% change of MS signal compared to control sample [21]	% change of MS signal compared to control sample [22]	% change of MS signal compared to control sample [23]	also measured
C=CC(=O)N1CCCCC(Nc2nccc(Nc3ncc(C(=O)Nc4c(C)cccc4C)s3)n2)C1 (stereo not drawn) [Example I-7]	−4.6%	12.7%	94.7%	−19.1%	−22.5%	8.5%	−48.6%	−58.3%	−19.1% and −16.0%	4.9%	11.6%	−6.6%	−6.4%	12.7%	−2.3%	−6.3%	−0.3%	−1.6%	0.4%	−51.9%	% change of MS signal compared to control sample [11]: 70.9% and 60.1%; % change of MS signal compared to control sample [17, 41]: −1.9%; % change of MS signal compared to control sample [18]: −20.7% and −22.3%; % change of MS signal compared to control sample [24]: 76.5% and 75.7%; % change of MS signal compared to control sample [25]: −23.1%; % change of MS signal compared to control sample [26]: 6.6%; % change of MS signal compared to control sample [27]: 12.2%; % change of MS signal compared to control sample [28]: 19.3%; % change of MS signal compared to control sample [29]: 7.9%; % change of MS signal compared to control sample [30]: 10.0%; % change of MS signal compared to control sample [31]: 96.5%; % change of MS signal compared to control sample [32]: −48.0%; % change of MS signal compared to control sample [33]: −29.7%; % change of MS signal compared to control sample [34]: −13.3% and −6.3%; % change of MS signal compared to control sample [35]: −10.7%; % change of MS signal compared to control sample [36]: −20.9%; % change of MS signal compared to control sample [37]: 4.3%; % change of MS signal compared to control sample [38]: −4.7%; % change of MS signal compared to control sample [39]: 0.4%
C=CC(=O)N1CCC(Cn2ccc(Nc3ncc(C(=O)Nc4c(C)cccc4Cl)s3)n2)C1 (stereo not drawn) [II-1]	−18.0%	18.4%	87.8%	−9.5%	−14.8%	−6.0%	−58.4%	−52.0%	−7.9% and −2.8%	14.0%	21.1%	−8.1%	13.8%	9.2%	5.2%	−0.8%	9.7%	3.8%	−1.0%	−45.9%	% change of MS signal compared to control sample [17, 41]: −5.1%; % change of MS signal compared to control sample [18]: −19.4% and −27.3%; % change of MS signal compared to control sample [24]: 26.2% and 32.5%; % change of MS signal compared to control sample [25]: −17.6%; % change of MS signal compared to control sample [26]: 12.8%; % change of MS signal compared to control sample [27]: 6.5%; % change of MS signal compared to control sample [28]: 19.7%; % change of MS signal compared to control sample [29]: −1.2%; % change of MS signal compared to control sample [40]: 2.6% and 3.8%; % change of MS signal compared to control sample [30]: 12.7%; % change of MS signal compared to control sample [31]: 92.4%; % change of MS signal compared to control sample [32]: −55.3%; % change of MS signal compared to control sample [33]: −23.3%; % change of MS signal compared to control sample [34]: −6.2% and −4.1%; % change of MS signal compared to control sample [35]: −27.2%; % change of MS signal compared to control sample [36]: −15.0%; % change of MS signal compared to control sample [37]: 16.3%; % change of MS signal compared to control sample [38]: −5.8%; % change of MS signal compared to control sample [39]: −3.6%
C=CC(=O)N1CCC(CNc2nccc(Nc3ncc(C(=O)Nc4c(C)cccc4C)s3)n2)C1 (racemic) [Example I-8]	11.7%	7.8%	86.0%	−16.2%	−22.3%	−3.0%	−62.5%	−55.6%	−14.1% and −8.7%	0.5%	−0.8%	−16.3%	27.5%	19.3%	3.6%	−17.5%	−6.8%	−8.3%	−5.9%	−55.4%	% change of MS signal compared to control sample [11]: 97.6% and 85.7%; % change of MS signal compared to control sample [17]: −10.7%; % change of MS signal compared to control sample [24]: 88.1% and 86.2%; % change of MS signal compared to control sample [25]: −19.7%; % change of MS signal compared to control sample [26]: 4.4%; % change of MS signal compared to control sample [27]: 13.1%; % change of MS signal compared to control sample [28]: 16.1%; % change of MS signal compared to control sample [29]: 15.5%; % change of MS signal compared to control sample [40]: 1.1% and −4.0%; % change of MS signal compared to control sample [30]: 8.7%; % change of MS signal compared to control sample [31]: 94.8%; % change of MS signal compared to control sample [32]: −24.9%; % change of MS signal compared to control sample [33]: −19.6%; % change of MS signal compared to control sample [34]: −20.3% and −13.6%; % change of MS signal compared to control sample [35]: 5.5%; % change of MS signal compared to control sample [36]: −13.3%; % change of MS signal compared to control sample [37]: 4.2%; % change of MS signal compared to control sample [38]: −0.1%; % change of MS signal compared to control sample [39]: −2.9%
